Laboratory results reported in the NIST ThermoML archive (doi:10.1021/acs.jced.8b00662).

Assay: xn = mol fraction of the nth substance listed
Conditions: 100 kPa, Liquid; for viscosity: Falling or rolling sphere viscometry; for mass density: Vibrating tube method

CC(C)C1CCCCC1 [(1-methylethyl)cyclohexane] + c1ccc2c(c1)CCCC2
Conditions	mass density [kg/m3]	viscosity [mPa·s]
293.15 K, x2 = 0	802.14	1.093
293.15 K, x2 = 0.0995	816.67	1.129
293.15 K, x2 = 0.1995	831.75	1.195
293.15 K, x2 = 0.299	847.23	1.258
293.15 K, x2 = 0.4004	863.44	1.334
293.15 K, x2 = 0.5006	879.87	1.436
293.15 K, x2 = 0.5995	896.5	1.543
293.15 K, x2 = 0.7015	914.1	1.671
293.15 K, x2 = 0.7991	931.39	1.823
293.15 K, x2 = 0.9006	949.99	2.008
298.15 K, x2 = 0	798.24	1.016
298.15 K, x2 = 0.0995	812.77	1.053
298.15 K, x2 = 0.1995	827.85	1.108
298.15 K, x2 = 0.299	843.32	1.165
298.15 K, x2 = 0.4004	859.53	1.233
298.15 K, x2 = 0.5006	875.96	1.324
298.15 K, x2 = 0.5995	892.57	1.416
298.15 K, x2 = 0.7015	910.16	1.531
298.15 K, x2 = 0.7991	927.44	1.662
298.15 K, x2 = 0.9006	946.04	1.824
303.15 K, x2 = 0	794.34	0.947
303.15 K, x2 = 0.0995	808.86	0.98
303.15 K, x2 = 0.1995	823.93	1.03
303.15 K, x2 = 0.299	839.4	1.08
303.15 K, x2 = 0.4004	855.61	1.143
303.15 K, x2 = 0.5006	872.03	1.225
303.15 K, x2 = 0.5995	888.63	1.305
303.15 K, x2 = 0.7015	906.22	1.407
303.15 K, x2 = 0.7991	923.49	1.521
303.15 K, x2 = 0.9006	942.08	1.667
308.15 K, x2 = 0	790.43	0.886
308.15 K, x2 = 0.0995	804.95	0.916
308.15 K, x2 = 0.1995	820.02	0.961
308.15 K, x2 = 0.299	835.48	1.007
308.15 K, x2 = 0.4004	851.68	1.064
308.15 K, x2 = 0.5006	868.1	1.137
308.15 K, x2 = 0.5995	884.69	1.208
308.15 K, x2 = 0.7015	902.28	1.3
308.15 K, x2 = 0.7991	919.54	1.404
308.15 K, x2 = 0.9006	938.12	1.532
313.15 K, x2 = 0	786.51	0.831
313.15 K, x2 = 0.0995	801.03	0.859
313.15 K, x2 = 0.1995	816.1	0.9
313.15 K, x2 = 0.299	831.55	0.942
313.15 K, x2 = 0.4004	847.75	0.994
313.15 K, x2 = 0.5006	864.17	1.06
313.15 K, x2 = 0.5995	880.76	1.124
313.15 K, x2 = 0.7015	898.34	1.207
313.15 K, x2 = 0.7991	915.59	1.3
313.15 K, x2 = 0.9006	934.17	1.413
318.15 K, x2 = 0	782.59	0.782
318.15 K, x2 = 0.0995	797.11	0.798
318.15 K, x2 = 0.1995	812.17	0.837
318.15 K, x2 = 0.299	827.63	0.876
318.15 K, x2 = 0.4004	843.82	0.925
318.15 K, x2 = 0.5006	860.23	0.986
318.15 K, x2 = 0.5995	876.81	1.045
318.15 K, x2 = 0.7015	894.39	1.121
318.15 K, x2 = 0.7991	911.63	1.206
318.15 K, x2 = 0.9006	930.21	1.309
323.15 K, x2 = 0	778.66	0.738
323.15 K, x2 = 0.0995	793.18	0.761
323.15 K, x2 = 0.1995	808.24	0.795
323.15 K, x2 = 0.299	823.7	0.831
323.15 K, x2 = 0.4004	839.88	0.875
323.15 K, x2 = 0.5006	856.3	0.93
323.15 K, x2 = 0.5995	872.87	0.982
323.15 K, x2 = 0.7015	890.45	1.05
323.15 K, x2 = 0.7991	907.69	1.123
323.15 K, x2 = 0.9006	926.26	1.219
328.15 K, x2 = 0	774.72	0.698
328.15 K, x2 = 0.0995	789.24	0.72
328.15 K, x2 = 0.1995	804.3	0.751
328.15 K, x2 = 0.299	819.76	0.784
328.15 K, x2 = 0.4004	835.94	0.825
328.15 K, x2 = 0.5006	852.35	0.875
328.15 K, x2 = 0.5995	868.92	0.922
328.15 K, x2 = 0.7015	886.5	0.985
328.15 K, x2 = 0.7991	903.74	1.051
328.15 K, x2 = 0.9006	922.3	1.137
333.15 K, x2 = 0	770.77	0.661
333.15 K, x2 = 0.0995	785.29	0.681
333.15 K, x2 = 0.1995	800.35	0.711
333.15 K, x2 = 0.299	815.81	0.741
333.15 K, x2 = 0.4004	831.99	0.779
333.15 K, x2 = 0.5006	848.4	0.825
333.15 K, x2 = 0.5995	864.97	0.869
333.15 K, x2 = 0.7015	882.54	0.926
333.15 K, x2 = 0.7991	899.78	0.986
333.15 K, x2 = 0.9006	918.35	1.065
338.15 K, x2 = 0	766.81	0.628
338.15 K, x2 = 0.0995	781.34	0.647
338.15 K, x2 = 0.1995	796.4	0.674
338.15 K, x2 = 0.299	811.85	0.703
338.15 K, x2 = 0.4004	828.03	0.737
338.15 K, x2 = 0.5006	844.44	0.78
338.15 K, x2 = 0.5995	861.01	0.82
338.15 K, x2 = 0.7015	878.57	0.873
338.15 K, x2 = 0.7991	895.81	0.928
338.15 K, x2 = 0.9006	914.37	0.999
343.15 K, x2 = 0	762.84	0.598
343.15 K, x2 = 0.0995	777.38	0.616
343.15 K, x2 = 0.1995	792.44	0.641
343.15 K, x2 = 0.299	807.89	0.668
343.15 K, x2 = 0.4004	824.07	0.7
343.15 K, x2 = 0.5006	840.47	0.74
343.15 K, x2 = 0.5995	857.04	0.776
343.15 K, x2 = 0.7015	874.6	0.825
343.15 K, x2 = 0.7991	891.84	0.875
343.15 K, x2 = 0.9006	910.39	0.942
